Source: patent publication US20120323002A1, “IMIDAZOPYRIDAZINE COMPOUNDS” (AJINOMOTO CO., INC., priority 2009, published 2012)

Columns and labels:
Type in all cases: cell-based, mouse (female Balb/c)
[1] = system: IL-12p70 (IL-12p35/p40 complex); assay: Cytokine inhibiting action using mouse peritoneal macrophages: IL-12p70 production (ELISA); conditions: Peritoneal macrophage, 100 ng/mL mouse interferon-γ + 0.05% (v/v) SAC, incubated overnight, 50% production inhibition concentration
Description: (§1) 1 mL of a 3% (w/v) thioglycolate solution was intraperitoneally administered to a mouse (female Balb/c). 5 or 6 days later, the peritoneal cells of the mouse were collected, and the adherent cells were used for evaluation. 100 ng/mL of mouse interferon-γ, a 0.05% (v/v) suspension of killed Staphylococcus aureus Cowan I strain (SAC) and a compound of the present invention were added thereto and incubated overnight. After the incubation, the survival rate was measured, and each of IL-12p70 (IL-12p35/p40 complex) and TNF-α was quantified by ELISA using the collected culture supernatant to calculate the 50% production inhibition concentration (IC50) (refer to Table 1; meanwhile, the blanks in the table indicate unmeasured).

[2] = system: TNF-α; assay: Cytokine inhibiting action using mouse peritoneal macrophages: TNF-α production (ELISA); conditions: Peritoneal macrophage, 100 ng/mL mouse interferon-γ + 0.05% (v/v) SAC, incubated overnight, 50% production inhibition concentration
Description: as §1

[3] = system: IL-12p70 (IL-12p35/p40 complex); assay: Cytokine inhibiting action using mouse whole blood: IL-12p70 production (ELISA); conditions: mouse whole blood (EDTA), 200 ng/mL mouse interferon-γ + 1.25% (v/v) SAC, incubated overnight; 50% production inhibition concentration
Description: The blood (EDTA addition) was collected from a mouse (female Balb/c) and used for evaluation. 200 ng/mL of mouse interferon-γ, a 1.25% (v/v) suspension of killed Staphylococcus aureus Cowan I strain (SAC) and a compound of the present invention were added to a cell culture medium, diluted to become a quantity equal to the blood and incubated overnight.

| Structure (SMILES) | IC50 [1] [nM] | IC50 [2] [nM] | IC50 [3] [nM] |
| --- | --- | --- | --- |
| Cc1cccc(/C=N/Nc2cc(N3CCOCC3)c3nc(-c4ccccc4)cn3n2)c1 [Compound 1, N-(3-methyl-benzylidene)-N′-(8-morpholin-4-yl-2-phenyl-imidazo[1,2-b]pyridazin-6-yl)-hydrazine] | 32 | – | – |
| C(=N\Nc1cc(N2CCOCC2)c2nc(-c3ccccc3)cn2n1)/c1c[nH]c2ccccc12 [Compound 2, N-(1H-indol-3-yl-methylidene)-N′-(8-morpholin-4-yl-2-phenyl-imidazo[1,2-b]pyridazin-6-yl)-hydrazine] | 36 | – | – |
| Cc1cccc(/C=N/Nc2cc(N3CCOCC3)c3nc(-c4cccnc4)cn3n2)c1 [Compound 3, N-(3-methyl-benzylidene)-N′-(8-morpholin-4-yl-2-pyridin-3-yl-imidazo[1,2-b]pyridazin-6-yl)-hydrazine] | 8.7 | > 10000 | 3000 |
| Cc1cccc(/C=N/Nc2cc(N3CCOCC3)c3nc(-c4ccncc4)cn3n2)c1 [Compound 4, N-(3-methyl-benzylidene)-N′-(8-morpholin-4-yl-2-pyridin-4-yl-imidazo[1,2-b]pyridazin-6-yl)-hydrazine] | 3.6 | > 10000 | 470 |
| Cc1cccc(/C=N/Nc2cc(N3CCOCC3)c3nc(-c4cnn(-c5ccccc5)c4C)cn3n2)c1 [Compound 5, N-(3-methyl-benzylidene)-N′-[2-(5-methyl-1-phenyl-1H-pyrazol-4-yl)-8-morpholin-4-yl-imidazo[1,2-b]pyridazin-6-yl]-hydrazine] | 33 | – | – |
| C(=N\Nc1cc(N2CCOCC2)c2nc(-c3ccncc3)cn2n1)/c1c[nH]c2ccccc12 [Compound 6, N-(1H-indol-3-yl-methylidene)-N′-(8-morpholin-4-yl-2-pyridin-4-yl-imidazo[1,2-b]pyridazin-6-yl)-hydrazine] | 92 | – | – |
| Cc1cccc(/C=N/Nc2cc(N3CCOCC3)c3nc(-c4ccc(N5CCCC5)cc4)cn3n2)c1 [Compound 7, N-(3-methyl-benzylidene)-N′-[8-morpholin-4-yl-2-(4-pyrrolidin-1-yl-phenyl)-imidazo[1,2-b]pyridazin-6-yl]-hydrazine] | 40 | – | – |
| Cc1cccc(/C=N/Nc2cc(N3CCOCC3)c3nc(-c4ccc(-c5ccccn5)s4)cn3n2)c1 [Compound 8, N-(3-methyl-benzylidene)-N′-[8-morpholin-4-yl-2-(5-pyridin-2-yl-thiophen-2-yl)-imidazo[1,2-b]pyridazin-6-yl]-hydrazine] | 15 | – | 1500 |
| C(=N\Nc1cc(N2CCOCC2)c2nc(-c3ccncc3)cn2n1)/c1coc2ccccc12 [Compound 9, N-benzofuran-3-yl-methylidene-N′-(8-morpholin-4-yl-2-pyridin-4-yl-imidazo[1,2-b]pyridazin-6-v)-hydrazine] | 76 | – | 890 |
| CCc1cccc(/C=N/Nc2cc(N3CCOCC3)c3nc(-c4ccncc4)cn3n2)c1 [Compound 10, N-(3-ethyl-benzylidene)-N′-(8-morpholin-4-yl-2-pyridin-4-yl-imidazo[1,2-b]pyridazin-6-yl)-hydrazine] | 8.1 | – | 180 |
| C(=N\Nc1cc(N2CCOCC2)c2nc(-c3ccncc3)cn2n1)/c1csc2ccccc12 [Compound 11, N-benzo[b]thiophen-3-yl-methylidene-N′-(8-morpholin-4-yl-2-pyridin-4-yl-imidazo[1,2-b]pyridazin-6-yl)-hydrazine] | 30 | – | 1000 |
| Cc1[nH]c2ccc(/C=N/Nc3cc(N4CCOCC4)c4nc(-c5ccncc5)cn4n3)cc2c1C [Compound 12, N-(2,3-dimethyl-1H-indol-5-yl-methylidene)-N′-(8-morpholin-4-yl-2-pyridin-4-yl-imidazo[1,2-b]pyridazin-6-yl)-hydrazine] | 140 | – | – |
| Cc1ccc(/C=N/Nc2cc(N3CCOCC3)c3nc(-c4ccncc4)cn3n2)o1 [Compound 13, N-(5-methyl-furan-2-yl-methylidene)-N′-(8-morpholin-4-yl-2-pyridin-4-yl-imidazo[1,2-b]pyridazin-6-yl)-hydrazine] | 190 | – | – |
| CC(C)c1cccc(/C=N/Nc2cc(N3CCOCC3)c3nc(-c4ccncc4)cn3n2)c1 [Compound 14, N-(3-isopropyl-benzylidene)-N′-(8-morpholin-4-yl-2-pyridin-4-yl-imidazo[1,2-b]pyridazin-6-yl)-hydrazine] | 130 | – | – |
| C(=N\Nc1cc(N2CCOCC2)c2nc(-c3ccncc3)cn2n1)/c1ccc2cc[nH]c2c1 [Compound 15, N-(1H-indol-6-yl-methylidene)-N′-(8-morpholin-4-yl-2-pyridin-4-yl-imidazo[1,2-b]pyridazin-6-yl)-hydrazine] | 54 | – | – |
| C=C(C)c1cccc(/C=N/Nc2cc(N3CCOCC3)c3nc(-c4ccncc4)cn3n2)c1 [Compound 16, N-(3-isopropenyl-benzylidene)-N′-(8-morpholin-4-yl-2-pyridin-4-yl-imidazo[1,2-b]pyridazin-6-yl)-hydrazine] | 77 | – | – |
| CC(=O)c1cccc(/C=N/Nc2cc(N3CCOCC3)c3nc(-c4ccncc4)cn3n2)c1 [Compound 17, N-(3-acetyl-benzylidene)-N′-(8-morpholin-4-yl-2-pyridin-4-yl-imidazo[1,2-b]pyridazin-6-yl)-hydrazine] | 37 | – | – |
| CCCCC(C)c1cccc(/C=N/Nc2cc(N3CCOCC3)c3nc(-c4ccncc4)cn3n2)c1 (stereo not drawn) [Compound 18, N-[3-(1-methyl-pentyl)-benzylidene]-N′-(8-morpholin-4-yl-2-pyridin-4-yl-imidazo[1,2-b]pyridazin-6-yl)-hydrazine] | 1100 | – | – |
| C=Cc1cccc(/C=N/Nc2cc(N3CCOCC3)c3nc(-c4ccncc4)cn3n2)c1 [Compound 19, N-(3-vinyl-benzylidene)-N-(8-morpholin-4-yl-2-pyridin-4-yl-imidazo[1,2-b]pyridazin-6-yl)-hydrazine] | 6.4 | – | – |
| C(=N\Nc1cc(N2CCOCC2)c2nc(-c3ccncc3)cn2n1)/c1ccc2occc2c1 [Compound 20, N-benzofuran-5-ylmethylene-N′-(8-morpholin-4-yl-2-pyridin-4-yl-imidazo[1,2-b]pyridazin-6-yl)-hydrazine] | 9.4 | – | 150 |
| C(=N\Nc1cc(N2CCOCC2)c2nc(-c3ccncc3)cn2n1)/c1cc2ccccc2[nH]1 [Compound 21, N-(1H-indol-2-ylmethylene)-N-(8-morpholin-4-yl-2-pyridin-4-yl-imidazo[1,2-b]pyridazin-6-yl)-hydrazine] | 16 | – | 340 |
| FC(F)c1cccc(/C=N/Nc2cc(N3CCOCC3)c3nc(-c4ccncc4)cn3n2)c1 [Compound 22, N-(3-difluoromethyl-benzylidene)-N-(8-morpholin-4-yl-2-pyridin-4-yl-imidazo[1,2-b]pyridazin-6-yl)-hydrazine] | 40 | – | 110 |
| CN(C)c1cccc(/C=N/Nc2cc(N3CCOCC3)c3nc(-c4ccncc4)cn3n2)c1 [Compound 23, N-(3-dimethylamino-benzylidene)-N-(8-morpholin-4-yl-2-pyridin-4-yl-imidazo[1,2-b]pyridazin-6-yl)-hydrazine] | 63 | – | 550 |
| Cc1ccc(/C=N/Nc2cc(N3CCOCC3)c3nc(-c4ccncc4)cn3n2)[nH]1 [Compound 24, N-(5-methyl-1H-pyrrol-2-ylmethylene)-N-(8-morpholin-4-yl-2-pyridin-4-yl-imidazo[1,2-b]pyridazin-6-yl)-hydrazine] | 370 | – | – |
| Cc1ccc(/C=N/Nc2cc(N3CCOCC3)c3nc(-c4ccncc4)cn3n2)cc1 [Compound 25, N-(4-methyl-benzylidene)-N′-(8-morpholin-4-yl-2-pyridin-4-yl-imidazo[1,2-b]pyridazin-6-yl)-hydrazine] | 44 | – | 63 |
| FCc1ccc(/C=N/Nc2cc(N3CCOCC3)c3nc(-c4ccncc4)cn3n2)cc1 [Compound 26, N-(4-fluoromethyl-benzylidene)-N′-(8-morpholin-4-yl-2-pyridin-4-yl-imidazo[1,2-b]pyridazin-6-yl)-hydrazine] | 46 | – | 270 |
| CN1CCc2ccc(/C=N/Nc3cc(N4CCOCC4)c4nc(-c5ccncc5)cn4n3)cc21 [Compound 27, N-(N-methylindoline-6-ylmethylene)-N-(8-morpholin-4-yl-2-pyridin-4-yl-imidazo[1,2-b]pyridazin-6-yl)-hydrazine] | 44 | – | 1200 |
| Cc1ccccc1/C=N/Nc1cc(N2CCOCC2)c2nc(-c3ccncc3)cn2n1 [Compound 28, N-(2-methyl-benzylidene)-N′-(8-morpholin-4-yl-2-pyridin-4-yl-imidazo[1,2-b]pyridazin-6-yl)-hydrazine] | 76 | – | 290 |
| Cc1cccc(/C=N/Nc2cc(N3CCOCC3)c3nc(-c4cn[nH]c4)cn3n2)c1 [Compound 29, N-(3-methyl-benzylidene)-N′-{8-morpholin-4-yl-2-(1H-pyrazol-4-yl)-imidazo[1,2-b]pyridazin-6-yl}-hydrazine] | 1.1 | – | 1400 |
| Cc1ccc(-c2cn3nc(N/N=C/c4c[nH]c5ccccc45)cc(N4CCOCC4)c3n2)cn1 [Compound 30, N-(1H-indol-3-yl-methylene)-N′-[2-(6-methyl-pyridin-3-yl)-8-morpholin-4-yl-imidazo[1,2-b]pyridazin-6-yl]-hydrazine] | 5.2 | – | 1900 |
